What was measured:
Thromboxane-A synthase = molecular target: T1, Thromboxane-A synthase (Homo sapiens, UniProt P24557); experiment: biochemical; type: tissue-based, Platelet;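 further: enzyme inhibition assay with PGH2 supplied as substrate; in other assays of this panel Not Active means under 50% inhibition at 10 µM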
T1 sequence (P24557 whole entry): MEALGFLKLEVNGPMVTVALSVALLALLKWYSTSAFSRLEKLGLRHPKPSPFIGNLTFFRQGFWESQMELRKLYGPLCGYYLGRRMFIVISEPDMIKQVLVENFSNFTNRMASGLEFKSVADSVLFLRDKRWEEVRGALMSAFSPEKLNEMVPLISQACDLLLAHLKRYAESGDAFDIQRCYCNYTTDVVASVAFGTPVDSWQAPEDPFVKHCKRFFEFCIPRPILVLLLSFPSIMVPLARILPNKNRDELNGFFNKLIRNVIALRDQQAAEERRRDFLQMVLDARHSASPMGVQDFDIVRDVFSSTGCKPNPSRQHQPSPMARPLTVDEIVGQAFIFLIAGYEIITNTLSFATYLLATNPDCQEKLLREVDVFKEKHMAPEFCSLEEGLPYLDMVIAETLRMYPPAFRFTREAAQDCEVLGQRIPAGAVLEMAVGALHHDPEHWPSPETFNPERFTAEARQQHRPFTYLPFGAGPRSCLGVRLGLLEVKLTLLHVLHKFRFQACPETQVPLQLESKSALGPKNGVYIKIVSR

[1] = molecular target: T2, Alpha-1D adrenergic receptor (Homo sapiens, UniProt P25100); type: cell membranes, HEK293, Membrane; conditions: hek293; further: in other assays of this panel Not Active means under 50% inhibition at 10 µM
T2 sequence (P25100 whole entry): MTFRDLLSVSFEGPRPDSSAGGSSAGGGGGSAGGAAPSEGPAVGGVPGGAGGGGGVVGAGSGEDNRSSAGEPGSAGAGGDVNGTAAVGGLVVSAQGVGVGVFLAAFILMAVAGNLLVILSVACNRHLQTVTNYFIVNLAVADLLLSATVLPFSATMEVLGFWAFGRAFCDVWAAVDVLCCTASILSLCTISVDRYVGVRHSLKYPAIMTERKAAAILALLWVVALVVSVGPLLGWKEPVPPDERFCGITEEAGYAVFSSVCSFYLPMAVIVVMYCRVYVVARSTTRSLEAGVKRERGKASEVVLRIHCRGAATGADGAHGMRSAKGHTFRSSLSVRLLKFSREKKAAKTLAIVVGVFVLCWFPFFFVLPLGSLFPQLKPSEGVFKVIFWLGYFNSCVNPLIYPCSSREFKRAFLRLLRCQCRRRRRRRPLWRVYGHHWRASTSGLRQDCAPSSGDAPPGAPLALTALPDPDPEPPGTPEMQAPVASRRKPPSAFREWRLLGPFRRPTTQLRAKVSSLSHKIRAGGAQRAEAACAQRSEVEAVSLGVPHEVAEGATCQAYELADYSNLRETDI

[2] = molecular target: 5-hydroxytryptamine receptor 1B (Rattus norvegicus, UniProt P28564); type: cell membranes, Wistar, Cerebral cortex, Membrane; further: in other assays of this panel Not Active means under 50% inhibition at 10 µM
[3] = molecular target: cGMP-specific 3',5'-cyclic phosphodiesterase (Homo sapiens, UniProt O76074); experiment: DRUGMATRIX: Phosphodiesterase PDE5 enzyme inhibition (substrate: [3H]cGMP + cGMP); type: tissue-based, Platelet; conditions: platelet; Not Active = under 50% inhibition at 10 µM
[4] = molecular target: Platelet-activating factor receptor (Homo sapiens, UniProt P25105); experiment: biochemical; type: tissue-based; conditions: platelet; further: in other assays of this panel Not Active means under 50% inhibition at 10 µM
[5] = DRUGMATRIX: Atrial Natriuretic Factor (ANF) radioligand binding (ligand: [125I] ANF (rat)); type: cell membranes, Cavia porcellus, Dunkin-Hartley, Adrenal gland, Membrane; conditions: Not Active = under 50% inhibition at 10 µM
[6] = molecular target: C-C chemokine receptor type 5 (Homo sapiens, UniProt P51681); type: cell membranes, Membrane; conditions: hek293; further: in other assays of this panel Not Active means under 50% inhibition at 10 µM
[7] = molecular target: Vascular endothelial growth factor receptor 1 (Homo sapiens, UniProt P17948); type: cell-based; conditions: huvec; further: in other assays of this panel Not Active means under 50% inhibition at 10 µM
[8] = molecular target: T3, Neuropeptide Y receptor type 2 (Homo sapiens, UniProt P49146); type: cell membranes, Membrane; conditions: kan-ts; further: in other assays of this panel Not Active means under 50% inhibition at 10 µM
T3 sequence (P49146 whole entry): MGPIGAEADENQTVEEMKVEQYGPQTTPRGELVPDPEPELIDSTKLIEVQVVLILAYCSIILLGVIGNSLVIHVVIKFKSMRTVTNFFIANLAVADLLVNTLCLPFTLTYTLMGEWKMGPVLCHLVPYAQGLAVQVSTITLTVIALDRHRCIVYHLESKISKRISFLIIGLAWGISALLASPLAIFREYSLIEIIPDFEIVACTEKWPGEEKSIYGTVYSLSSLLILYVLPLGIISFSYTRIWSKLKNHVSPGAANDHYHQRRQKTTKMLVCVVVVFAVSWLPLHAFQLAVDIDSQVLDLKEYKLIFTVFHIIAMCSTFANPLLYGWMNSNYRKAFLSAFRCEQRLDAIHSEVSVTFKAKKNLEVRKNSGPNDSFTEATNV

[9] = molecular target: Mitogen-activated protein kinase 1 (Homo sapiens, UniProt P28482); experiment: DRUGMATRIX: Protein Serine/Threonine Kinase, ERK2 enzyme inhibition (substrate: Myelin Basic Protein); set-up: species or system Escherichia coli; conditions: Not Active = under 50% inhibition at 10 µM
[10] = molecular target: T4, Cysteinyl leukotriene receptor 1 (Homo sapiens, UniProt Q9Y271); type: cell membranes, CHO-K1, Membrane; conditions: cho-k1; further: in other assays of this panel Not Active means under 50% inhibition at 10 µM
T4 sequence (Q9Y271 whole entry): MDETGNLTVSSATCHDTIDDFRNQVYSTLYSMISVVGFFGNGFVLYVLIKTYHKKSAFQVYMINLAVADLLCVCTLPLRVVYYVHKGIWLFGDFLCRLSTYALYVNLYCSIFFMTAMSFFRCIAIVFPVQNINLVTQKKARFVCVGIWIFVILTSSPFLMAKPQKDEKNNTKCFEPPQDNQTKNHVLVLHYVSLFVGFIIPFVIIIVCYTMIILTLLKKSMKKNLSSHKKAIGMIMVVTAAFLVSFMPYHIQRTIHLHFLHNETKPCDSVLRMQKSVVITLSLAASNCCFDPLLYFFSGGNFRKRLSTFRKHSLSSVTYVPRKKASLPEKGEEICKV

Sequence of Mitogen-activated protein kinase 1 (P28482 whole entry): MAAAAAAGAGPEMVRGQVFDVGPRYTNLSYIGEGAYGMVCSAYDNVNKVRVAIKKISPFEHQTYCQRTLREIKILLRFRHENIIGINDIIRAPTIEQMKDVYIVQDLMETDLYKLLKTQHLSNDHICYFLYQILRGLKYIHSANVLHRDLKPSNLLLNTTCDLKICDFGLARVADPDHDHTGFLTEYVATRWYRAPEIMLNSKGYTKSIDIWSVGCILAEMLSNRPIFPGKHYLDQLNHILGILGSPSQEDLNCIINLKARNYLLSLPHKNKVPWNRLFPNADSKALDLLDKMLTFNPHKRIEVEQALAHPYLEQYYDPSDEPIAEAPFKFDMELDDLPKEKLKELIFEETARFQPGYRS
Sequence of Platelet-activating factor receptor (P25105 whole entry): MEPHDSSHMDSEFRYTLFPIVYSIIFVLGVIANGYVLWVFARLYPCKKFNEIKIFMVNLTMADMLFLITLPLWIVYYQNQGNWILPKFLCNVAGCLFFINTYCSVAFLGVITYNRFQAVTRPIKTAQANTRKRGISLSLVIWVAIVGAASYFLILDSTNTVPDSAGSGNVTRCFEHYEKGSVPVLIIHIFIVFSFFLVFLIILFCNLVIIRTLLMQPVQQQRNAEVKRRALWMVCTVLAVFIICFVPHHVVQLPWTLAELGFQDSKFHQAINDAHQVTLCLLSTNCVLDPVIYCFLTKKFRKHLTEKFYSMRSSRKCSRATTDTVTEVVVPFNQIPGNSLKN
Sequence of C-C chemokine receptor type 5 (P51681 whole entry): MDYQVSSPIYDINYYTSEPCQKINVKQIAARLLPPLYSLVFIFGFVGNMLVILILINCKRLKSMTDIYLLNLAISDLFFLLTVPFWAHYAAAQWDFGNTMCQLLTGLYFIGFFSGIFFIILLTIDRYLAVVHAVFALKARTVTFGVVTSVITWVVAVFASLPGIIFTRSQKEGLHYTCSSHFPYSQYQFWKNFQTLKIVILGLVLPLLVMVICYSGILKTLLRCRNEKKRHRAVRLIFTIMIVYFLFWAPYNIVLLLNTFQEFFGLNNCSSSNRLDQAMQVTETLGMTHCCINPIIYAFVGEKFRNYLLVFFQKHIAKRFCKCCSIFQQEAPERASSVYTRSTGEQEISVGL
Sequence of Vascular endothelial growth factor receptor 1 (P17948 whole entry): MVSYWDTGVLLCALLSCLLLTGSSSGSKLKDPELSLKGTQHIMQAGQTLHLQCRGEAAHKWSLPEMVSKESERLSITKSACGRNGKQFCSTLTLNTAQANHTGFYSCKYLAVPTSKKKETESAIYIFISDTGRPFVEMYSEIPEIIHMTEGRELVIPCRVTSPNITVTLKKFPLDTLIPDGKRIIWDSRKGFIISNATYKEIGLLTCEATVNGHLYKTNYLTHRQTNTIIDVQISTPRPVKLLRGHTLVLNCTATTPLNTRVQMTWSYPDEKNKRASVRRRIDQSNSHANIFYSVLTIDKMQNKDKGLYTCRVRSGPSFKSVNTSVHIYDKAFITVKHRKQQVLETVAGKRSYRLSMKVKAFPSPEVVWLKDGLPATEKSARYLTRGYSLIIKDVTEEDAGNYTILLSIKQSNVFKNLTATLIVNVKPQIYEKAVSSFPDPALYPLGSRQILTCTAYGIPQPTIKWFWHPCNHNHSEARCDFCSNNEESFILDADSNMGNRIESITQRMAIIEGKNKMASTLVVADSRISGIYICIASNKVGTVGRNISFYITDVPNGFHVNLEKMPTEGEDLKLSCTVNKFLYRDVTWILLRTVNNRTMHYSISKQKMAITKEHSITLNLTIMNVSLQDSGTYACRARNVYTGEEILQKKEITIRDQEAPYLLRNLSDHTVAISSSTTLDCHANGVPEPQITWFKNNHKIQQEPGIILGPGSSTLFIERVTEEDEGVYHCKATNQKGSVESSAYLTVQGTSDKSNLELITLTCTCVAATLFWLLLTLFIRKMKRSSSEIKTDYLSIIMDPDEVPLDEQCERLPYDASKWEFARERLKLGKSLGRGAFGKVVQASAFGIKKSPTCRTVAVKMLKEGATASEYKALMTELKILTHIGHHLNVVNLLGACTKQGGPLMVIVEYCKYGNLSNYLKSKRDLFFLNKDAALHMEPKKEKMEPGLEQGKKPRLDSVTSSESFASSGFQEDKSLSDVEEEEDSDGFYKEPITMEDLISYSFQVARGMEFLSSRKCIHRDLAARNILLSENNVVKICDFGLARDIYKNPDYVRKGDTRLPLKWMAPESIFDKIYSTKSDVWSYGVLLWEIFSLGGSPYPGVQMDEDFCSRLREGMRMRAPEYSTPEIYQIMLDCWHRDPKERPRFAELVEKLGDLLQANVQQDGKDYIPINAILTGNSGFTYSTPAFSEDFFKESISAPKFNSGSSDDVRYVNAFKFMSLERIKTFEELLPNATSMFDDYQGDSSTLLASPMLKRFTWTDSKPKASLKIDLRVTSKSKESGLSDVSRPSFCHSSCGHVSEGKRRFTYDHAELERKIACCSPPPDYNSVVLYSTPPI
Sequence of 5-hydroxytryptamine receptor 1B (P28564 whole entry): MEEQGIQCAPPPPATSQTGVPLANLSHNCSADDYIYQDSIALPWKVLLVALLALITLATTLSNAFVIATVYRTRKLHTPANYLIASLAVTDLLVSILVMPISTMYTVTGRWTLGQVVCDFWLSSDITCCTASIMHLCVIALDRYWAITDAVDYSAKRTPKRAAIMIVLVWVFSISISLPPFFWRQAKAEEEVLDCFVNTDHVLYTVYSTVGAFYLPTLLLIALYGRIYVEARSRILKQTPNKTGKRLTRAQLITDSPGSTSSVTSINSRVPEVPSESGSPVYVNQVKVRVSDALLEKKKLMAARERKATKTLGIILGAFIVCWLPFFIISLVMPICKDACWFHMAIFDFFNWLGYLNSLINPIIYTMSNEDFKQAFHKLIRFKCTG

SMILES	IC50 (Thromboxane-A synthase; platelet)	IC50 [1]	IC50 [2]	IC50 [3]	IC50 [4]	IC50 [5]	Ki [5]	IC50 [6]	IC50 [7]	IC50 [8]	IC50 [10]	IC50 [9]	further results
CC1=C(/C=C/C(C)=C/C=C/C(C)=C\C(=O)O)C(C)(C)CCC1 [ISOTRETINOIN]	Not Active	Not Active	Not Active	Not Active	Not Active	Not Active	Not Active	Not Active	Not Active	Not Active	Not Active		IC50 ([9]; read-out: IC50): 462 nM
NC(CO)(CO)CO [TROMETHAMINE]	Not Active	Not Active	Not Active	Not Active	Not Active	Not Active	Not Active	Not Active	Not Active	Not Active	Not Active	Not Active	
Cc1ccc(C(=O)C(C)CN2CCCCC2)cc1 (centres undefined) [TOLPERISONE]	Not Active	Not Active	Not Active	Not Active	Not Active	Not Active	Not Active	Not Active	Not Active	Not Active	Not Active	Not Active	
CN(N=O)C(=O)N[C@@H](C=O)[C@@H](O)[C@H](O)[C@H](O)CO [STREPTOZOCIN]	Not Active	Not Active	Not Active	Not Active	Not Active	Not Active	Not Active	Not Active	Not Active	Not Active	Not Active	Not Active	
NC(=O)c1ncn([C@@H]2O[C@H](CO)[C@@H](O)[C@H]2O)n1 [RIBAVIRIN]	Not Active	Not Active	Not Active	Not Active	Not Active	Not Active	Not Active	Not Active	Not Active	Not Active	Not Active	Not Active	
Oc1c(I)cc(I)c2cccnc12 [IODOQUINOL]	Not Active	Not Active	Not Active	Not Active	Not Active	Not Active	Not Active	Not Active	Not Active	Not Active	Not Active		IC50 ([9]; read-out: IC50): 294 nM
CN1[C@@H]2CC[C@H]1C[C@@H](OC(=O)c1c[nH]c3ccccc13)C2 [TROPISETRON]	Not Active	Not Active	Not Active	Not Active	Not Active	Not Active	Not Active	Not Active	Not Active	Not Active	Not Active	Not Active	
NC(=O)c1ccccc1O [SALICYLAMIDE]	Not Active	Not Active	Not Active	Not Active	Not Active	Not Active	Not Active	Not Active	Not Active	Not Active	Not Active	Not Active	
COC(=O)C1=C(C)NC(C)=C(C(=O)OC)C1c1ccccc1[N+](=O)[O-] [NIFEDIPINE]		Not Active	Not Active	Not Active	Not Active	Not Active	Not Active	Not Active	Not Active	Not Active	Not Active	Not Active	IC50 (Thromboxane-A synthase; read-out: IC50): 18600 nM
O=[N+]([O-])c1cc([As](=O)(O)O)ccc1O [ROXARSONE]	Not Active	Not Active	Not Active	Not Active	Not Active	Not Active	Not Active	Not Active	Not Active	Not Active	Not Active	Not Active	Ki (Thromboxane-A synthase; platelet): Not Active; Ki [1]: Not Active; Ki [2]: Not Active; Ki [3]: Not Active; Ki [4]: Not Active; Ki [6]: Not Active; Ki [7]: Not Active; Ki [8]: Not Active; Ki [9]: Not Active; Ki [10]: Not Active
NCCCC[C@H](N[C@@H](CCc1ccccc1)C(=O)O)C(=O)N1CCC[C@H]1C(=O)O [LISINOPRIL ANHYDROUS]	Not Active	Not Active	Not Active	Not Active	Not Active	Not Active	Not Active	Not Active	Not Active	Not Active	Not Active	Not Active	
CC(=O)S[C@@H]1CC2=CC(=O)CC[C@]2(C)[C@H]2CC[C@@]3(C)[C@@H](CC[C@@]34CCC(=O)O4)[C@H]12 [SPIRONOLACTONE]	Not Active	Not Active	Not Active	Not Active	Not Active	Not Active	Not Active	Not Active	Not Active	Not Active	Not Active	Not Active	

Reference: ChEMBL document CHEMBL1909046, “DrugMatrix in vitro pharmacology data”
